For 21 molecules, CC50, EC50 selectivity and EC50 results are on record in patent US12448388B2, “PRMT5 inhibitors and uses thereof” (Gilead Sciences, Inc., priority 2023, dated 2025).

The test system of experiment [1] is HCT116 MTAP-deleted cell lines. Briefly: Cell viability assay (CellTiter-Glo, 7 days), HCT116 MTAP-deleted. It counts as cell-based. To be noted: Homo sapiens, HCT-116; cell viability assay, HCT116 MTAP-deleted; class symbols; read-out: CC50. In outline:
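HCT116 MTAP-deleted and wild-type cells exposed to serially diluted compound for 7 days at 37 °C, 5% CO2. Viability read by CellTiter-Glo luminescence; CC50 derived per line, with selectivity comparing WT to MTAP-deleted, limited solubility can inflate values marked *.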
For orientation: Cellular ATP, detected with luciferase, serves as a proxy for viable cell number.

In experiment [2] the test system is Symmetric Di-methyl Arginine (SDMA) signal (PRMT5 inhibition) in HCT116 MTAP-deleted cells. Nature of the experiment: Symmetric di-methyl arginine image-based high content screen assay (SDMA assay), HCT116 MTAP-deleted. In kind it is cell-based. The conditions noted are these: for EC50 selectivity: HCT116 WT vs HCT116 MTAP-deleted; for EC50: Homo sapiens, HCT-116, HCT116 MTAP-deleted, class symbols. In outline:
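HCT116 WT and MTAP-deleted cells (800/well, RPMI 1640 + 10% FBS) treated with compound 3 days at 37 °C; formalin-fixed, stained with anti-SDMA antibody/Alexa 488 plus DAPI. Mean SDMA intensity per DAPI-defined cell imaged; EC50 from 4-parameter logistic fit.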

The structures appear in SMILES notation. Where only a bound is given, the exact number is not on record here.

What is called CC50 is the concentration giving 50% cytotoxicity. One may read the EC50 as the midpoint of the concentration-response curve. Consider `CC(C)N(Cc1ccc(C(F)(F)F)cc1F)C(=O)c1ccc2nc(N)c3cncn3c2c1` [Ff-412, 4-amino-N-[[2-fluoro-4-(trifluoromethyl)phenyl]methyl]-N-isopropyl-imidazo[1,5-a]quinoxaline-8-carboxamide], for which, in experiment [1], the CC50 was less than 100 nM. Also, in experiment [2], the EC50 selectivity was 252 and the EC50 is not above 1 nM.
On the same counts, the results for `Nc1nc2cc(F)c(C(=O)N3CCC[C@@H]4Oc5c(ccc(C(F)(F)F)c5F)[C@@H]43)cc2n2cncc12` [Ff-501, (4-amino-7-fluoroimidazo[1,5-a]quinoxalin-8-yl)((4aS,9bS)-6-fluoro-7-(trifluoromethyl)-3,4,4a,9b-tetrahydrobenzofuro[3,2-b]pyridin-1(2H)-yl)methanone] are less than 100 nM, 115 and not above 1 nM.
For `Cc1ncn2c1c(N)nc1cnc(C(=O)N(C)[C@@H]3COc4cc(C(F)(F)F)ccc43)cc12` [Ff-502, (S)-4-amino-N,3-dimethyl-N-(6-(trifluoromethyl)-2,3-dihydrobenzofuran-3-yl)imidazo[1,5-a]pyrido[3,4-e]pyrazine-8-carboxamide], the CC50 in experiment [1] was less than 100 nM. Besides, in experiment [2], the EC50 selectivity is listed as 112 and the EC50 lay within 1 to 5 nM.
On the same counts, the results for `CN(C(=O)c1cc2c(cc1F)nc(N)c1cncn12)[C@@H]1COc2cc(C#CC3(C)COC3)ccc21` [Ff-516, (S)-4-amino-7-fluoro-N-methyl-N-(6-((3-methyloxetan-3-yl)ethynyl)-2,3-dihydrobenzofuran-3-yl)imidazo[1,5-a]quinoxaline-8-carboxamide] are less than 100 nM, 337 and 1 to 5 nM.
Regarding `Cc1cn(-c2ccc3c(c2)OC[C@H]3N(C)C(=O)c2cc3c(cc2F)nc(N)c2cncn23)cn1` [Ff-544, (S)-4-amino-7-fluoro-N-methyl-N-(6-(4-methyl-1H-imidazol-1-yl)-2,3-dihydrobenzofuran-3-yl)imidazo[1,5-a]quinoxaline-8-carboxamide], the CC50 in experiment [1] was less than 100 nM. In addition, in experiment [2], the EC50 selectivity was found to be 109 and the EC50 lay within 1 to 5 nM.
On the same counts, the results for `CN(C(=O)c1cc2c(cc1F)nc(N)c1cncn12)[C@@H]1COc2cc(-n3cc(C(F)(F)F)cn3)ccc21` [Ff-545, (S)-4-amino-7-fluoro-N-methyl-N-(6-(4-(trifluoromethyl)-1H-pyrazol-1-yl)-2,3-dihydrobenzofuran-3-yl)imidazo[1,5-a]quinoxaline-8-carboxamide] are less than 100 nM, 157 and 1 to 5 nM.
For `CN(C(=O)c1ccc2nc(N)c3cncn3c2c1)[C@@H]1COc2cc(C3CC3)ccc21` [Ff-548, (S)-4-amino-N-(6-cyclopropyl-2,3-dihydrobenzofuran-3-yl)-N-methylimidazo[1,5-a]quinoxaline-8-carboxamide], the CC50 in experiment [1] is 100 to 1000 nM. In experiment [2], this molecule showed an EC50 selectivity of 102 and an EC50 of 1 to 5 nM.
On the same counts, the results for `CN(C(=O)c1ccc2nc(N)c3cncn3c2c1)[C@@H]1COc2cc(Cl)ccc21` [Ff-566, (S)-4-amino-N-(6-chloro-2,3-dihydrobenzofuran-3-yl)-N-methylimidazo[1,5-a]quinoxaline-8-carboxamide] are 100 to 1000 nM, 497 and 1 to 5 nM.
`CN(C(=O)c1cc2c(cc1F)nc(N)c1cncn12)[C@@H]1COc2cc(Cl)ccc21` [Ff-567, (S)-4-amino-N-(6-chloro-2,3-dihydrobenzofuran-3-yl)-7-fluoro-N-methylimidazo[1,5-a]quinoxaline-8-carboxamide]: the CC50 in experiment [1] was less than 100 nM. In experiment [2], the EC50 selectivity is 707 and the EC50 is not above 1 nM.
For the molecule `CN(C(=O)c1cc2c(cc1F)nc(N)c1cncn12)[C@@H]1COc2cc(F)ccc21` [Ff-568, (S)-4-amino-N-(6-fluoro-2,3-dihydrobenzofuran-3-yl)-7-fluoro-N-methylimidazo[1,5-a]quinoxaline-8-carboxamide], in experiment [1], the CC50 lay in the range of 100 to 1000 nM. In experiment [2], this molecule yielded an EC50 selectivity of 457 and an EC50 of more than 5 nM.
In the same order, the values of `Nc1nc2ccc(C(=O)N3CCC4(CC4)[C@@H]4Oc5cc(OC(F)(F)F)ccc5[C@@H]43)cc2n2cncc12` [Ff-615, (4-aminoimidazo[1,5-a]quinoxalin-8-yl)((4aS,9bS)-7-(trifluoromethoxy)-2,3,4a,9b-tetrahydro-1H-spiro[benzofuro[3,2-b]pyridine-4,1′-cyclopropan]-1-yl)methanone] are less than 100 nM, 158 and not above 1 nM.
In the same order, the values of `C[C@@H]1C[C@@H]2Oc3cc(OC(F)(F)F)ccc3[C@@H]2N(C(=O)c2ccc3nc(N)c4cncn4c3c2)C1` [Ff-616, (4-aminoimidazo[1,5-a]quinoxalin-8-yl)((3R,4aS,9bS)-3-methyl-7-(trifluoromethoxy)-3,4,4a,9b-tetrahydrobenzofuro[3,2-b]pyridin-1(2H)-yl)methanone] are less than 100 nM, 162 and not above 1 nM.
For `Cc1ncn2c1c(N)nc1cnc(C(=O)N3CCC4(CC4)[C@@H]4Oc5cc(OC(F)(F)F)ccc5[C@@H]43)cc12` [Ff-617, (4-amino-3-methylimidazo[1,5-a]pyrido[3,4-e]pyrazin-8-yl)((4aS,9bS)-7-(trifluoromethoxy)-2,3,4a,9b-tetrahydro-1H-spiro[benzofuro[3,2-b]pyridine-4,1′-cyclopropan]-1-yl)methanone], the CC50 in experiment [1] is less than 100 nM. In experiment [2], this molecule displayed an EC50 selectivity of 274 and an EC50 of 1 to 5 nM.
In the same order, the values of `Nc1nc2cnc(C(=O)N3CCC4(CC4)[C@@H]4Oc5cc(OC(F)(F)F)ccc5[C@@H]43)cc2n2cncc12` [Ff-618, (4-aminoimidazo[1,5-a]pyrido[3,4-e]pyrazin-8-yl)((4aS,9bS)-7-(trifluoromethoxy)-2,3,4a,9b-tetrahydro-1H-spiro[benzofuro[3,2-b]pyridine-4,1′-cyclopropan]-1-yl)methanone] are less than 100 nM, 294 and 1 to 5 nM.
In the case of `Cc1ncn2c1c(N)nc1cnc(C(=O)N3C[C@H](C)C[C@@H]4Oc5cc(OC(F)(F)F)ccc5[C@@H]43)cc12` [Ff-619, (4-amino-3-methylimidazo[1,5-a]pyrido[3,4-e]pyrazin-8-yl)((3R,4aS,9bS)-3-methyl-7-(trifluoromethoxy)-3,4,4a,9b-tetrahydrobenzofuro[3,2-b]pyridin-1(2H)-yl)methanone], in experiment [1], the CC50 is less than 100 nM. In experiment [2], this molecule came in with an EC50 selectivity of 58 and an EC50 of 1 to 5 nM.
On the same counts, the results for `Cc1ncn2c1c(N)nc1cnc(C(=O)N3C[C@H](C)C[C@@H]4Oc5cc(C(F)(F)F)ccc5[C@@H]43)cc12` [Ff-624, (4-amino-3-methylimidazo[1,5-a]pyrido[3,4-e]pyrazin-8-yl)((3R,4aS,9bS)-3-methyl-7-(trifluoromethyl)-3,4,4a,9b-tetrahydrobenzofuro[3,2-b]pyridin-1(2H)-yl)methanone] are 100 to 1000 nM, 27 and more than 5 nM.
For `Nc1nc2cc(F)c(C(=O)N3CC[C@H]4C[C@@H]3c3ccc(C(F)(F)F)c(F)c3O4)cc2n2cncc12` [Ff-634, (4-amino-7-fluoroimidazo[1,5-a]quinoxalin-8-yl)((2S,6R)-10-fluoro-9-(trifluoromethyl)-3,4-dihydro-2H-2,6-methanobenzo[b][1,5]oxazocin-5(6H)-yl)methanone], the CC50 in experiment [1] is less than 100 nM. In experiment [2], this molecule returned an EC50 selectivity of 171 and a half-maximal effective concentration (EC50) not above 1 nM.
On the same counts, the results for `[2H]C1([2H])C[C@H]2C[C@H](c3ccc(C(F)(F)F)cc3O2)N1C(=O)c1cc2c(cc1F)nc(N)c1cncn12` [Ff-637, (4-amino-7-fluoroimidazo[1,5-a]quinoxalin-8-yl)((2S,6R)-9-(trifluoromethyl)-3,4-dihydro-2H-2,6-methanobenzo[b][1,5]oxazocin-5(6H)-yl-4,4-d2)methanone] are less than 100 nM, 182 and not above 1 nM.
On the same counts, the results for `Cc1ncc2c(N)nc3ccc(C(=O)N4CCC[C@@H]5Oc6cc(OC(F)(F)F)ccc6[C@@H]54)cc3n12` [Ff-640, (4-amino-1-methylimidazo[1,5-a]quinoxalin-8-yl)((4aS,9bS)-7-(trifluoromethoxy)-3,4,4a,9b-tetrahydrobenzofuro[3,2-b]pyridin-1(2H)-yl)methanone] are less than 100 nM, 415 and 1 to 5 nM.
On the same counts, the results for `CN(C(=O)c1ccc2nc(N)c3cncn3c2c1)[C@@H]1COc2cc(C34CC(C(F)F)(C3)C4)ccc21` [Ff-641, (S)-4-amino-N-(6-(3-(difluoromethyl)bicyclo[1.1.1]pentan-1-yl)-2,3-dihydrobenzofuran-3-yl)-N-methylimidazo[1,5-a]quinoxaline-8-carboxamide] are less than 100 nM, 389 and not above 1 nM.
`[2H]C1([2H])CC[C@@H]2Oc3cc(C(F)(F)F)ccc3[C@@H]2N1C(=O)c1ccc2nc(N)c3cncn3c2c1` [Ff-643, (4-aminoimidazo[1,5-a]quinoxalin-8-yl)((4aS,9bS)-7-(trifluoromethyl)-3,4,4a,9b-tetrahydrobenzofuro[3,2-b]pyridin-1(2H)-yl-2,2-d2)methanone]: the CC50 in experiment [1] is less than 100 nM. In experiment [2], this molecule came in with an EC50 selectivity of 155 and an EC50 not above 1 nM.
